Nine compounds from patent US4312883A, “Furocoumarin for the photochemotherapy of psoriasis and related skin diseases” (Consiglio Nazionale delle Ricerche, priority 1979, dated 1982) can be followed below.

The test system of data set [1] is DNA. Kind of data set: Dark complex formation (intercalation) with DNA in the ground state, binding parameters. Details: K (association constants) of the complexes with DNA: unit not given here. The following applies: for K (association constants) of the complexes with DNA / 1/n (frequency of binding sites): in vitro, ground state; for K (association constants) of the complexes with DNA: McGhee and Von Hippel method; for 1/n (frequency of binding sites): molecules bound per nucleotide; for 1/n (frequency of binding sites), relative / K (association constants), relative: relative (ang = 100). The text has this: Dark complex formation: It is known from F. Dall'Acqua, et al. Chem.-Biol. Interactions 21,103 (1978) that the intercalated complex formed by furocoumarins with DNA strongly affects the successive photoaddition increasing the rate of photobinding. […] These parameters have been determined according to the method of McChee and Von Hippel, J.Mol.Biol, 86, 469 (1974).
(a) Determined according to Mc Ghee and Von Hippel, J. Mol. Biol.,

Data set [2] relates to epidermal DNA synthesis. Kind of data set: Inhibition of the synthesis of epidermal DNA of the mouse in vivo after oral administration and UV-A irradiation. Particulars: oral 0.25 g/Kg, UV-A 9 J/cm^2 after two hours. The text has this: Considering that the topical skin tests carried out on mice to evaluate the effectiveness of these substances has yielded data which correlate well with the clinical data, such a test conveniently modified has been adopted to evaluate the effectiveness of the alkylangelicins after oral administration followed by UV-A irradiation.
In this connection experiments have been conducted using mice 20±2 g in weight, that were starved for three hours before oral administration of the alkylangelicins. Groups of 5 mice were fed a suspension of 0.5% methylcellulose in water containing the alkylangelicins of the invention at a dosage of 0.25 g/Kg. The animals were kept in the dark for two hours, that is for the time necessary for absorption, systemic distribution and localization of the drug at the level of the skin. The animals were then irradiated with UV-A light, 9 J/cm^2. Later the animals were sacrificed and the inhibition of the epidermal DNA synthesis was tested; the results obtained are reported in Table VI. The skin on the back, protected from light by a dark paper, was assumed as a control. As a reference 8-MOP, used under the same experimental conditions, was also tested. The significant activity of the alkylangelicins according to the present invention, higher than that of 8-MOP, in inhibiting the epidermal DNA synthesis in mice upon oral administration allows one to consider these compounds as also being effective for oral administration to humans for photochemotherapy of psoriasis and of other skin diseases that are characterized by cellular hyperproliferation.

Data set [3] deals with epidermal DNA synthesis. The data set is described as follows: Inhibition of epidermal DNA synthesis in the mouse in vivo after topical application and UV-A irradiation. Particulars: light or radiation study, 0.01% methanol solutions, UV-A 9 J/cm^2, read-out: Percent inhibition ± standard error of epidermal DNA synthesis. How it is done: DNA samples were dissolved in water and their specific radioactivity determined.
Each drug substance was studied using at least six mice.

For data set [4], the system named is DNA. Kind of data set: Capacity to form inter-strand cross-linkages in DNA. Type of data set: biochemical. The following applies: (psr = 100). The procedure: All these compounds were not suitable to photoinduce in DNA inter-strand cross-linkages. […] These tests were carried out according to the method of F. Bordin et al., Photochem. Photobiol., 29,1063 (1979).

For data set [5], the system named is skin. The data set is described as follows: Relative skin phototoxicity. The following applies: (psr = 100).
In data set [6] the test system is psoriasis. The data set is described as follows: Topical photochemotherapy of psoriasis in patients. The following applies: for No. of patients with Excellent result / No. of patients with Fair result / No. of patients with Good result / No. of patients with Poor result: topical 0.1% w/v + UV-A; for No. of patients with Excellent result: Excellent = 90% clearance; for No. of patients with Fair result: Fair = 50-70%; for No. of patients with Good result: Good = 70-90%; for No. of patients with Poor result: Poor 40%. Type of data set: in vivo, human. An excerpt:
Clinical data: The effectiveness of certain representative alkylangelicins according to the present invention, specifically 5-methylangelicin, 4,5'-dimethylangelicin, 4'-hydroxymethyl-4,5'-dimethylangelicin, 4'-hydroxymethyl-4,5'-dimethylangelicin and 4,5-dimethylangelicin, has been tested by measuring their capacity to resolve psoriasis in various patients. For a direct comparison the efficacy of the parent unsubstituted angelicin and that of three very effective linear furocoumarins, that is 8-methoxypsoralen (8-MOP), 5-methoxypsoralen (5-MOP), and 4,5',8-trimethylpsoralen (TMP) were also tested.
In each treatment four areas of the affected skin were used;
(a) In the first area an alcohol lotion, containing 10% glycerine, of the tested compound (0.1% w/v) was applied until a concentration of […] was reached then left to evaporate by the heat of the body. After half an hour the area was irradiated with high intensity UV-A emitting low pressure mercury fluorescent lamps with a wavelength of 320-400 nm. The irradiation doses were selected in the range of 4.5-13 J/cm^2 for each application as a function of the sensitivity of the skin of the patients; when the skin sensitivity was higher, the light doses were lower and vice versa.
(b) A second area was treated with an alcohol solution of the drug as in (a) but it was covered and maintained in the dark.
(c) A third area, where the drug was not applied, was irradiated as in (a) but in general with higher UV-A doses.
(d) A fourth area was not treated at all, neither with the drug, not with UV-A.
The treatment with the alkylangenlicins referred to above was repeated 5 time a week for two or more weeks; the total number of treatments was between 8 and 20 per subject. In some cases, as for instance with 5-methylangelicin, a good clearing of psoriasis was observed after 8 treatments.
In order to avoid induction of photosensitization processes such as redness and erythema in the reference tests made with the linear furocoumarins 8-MOP, 5-MOP, TMP, lower light doses were used than in the case of alkylangelicins, the treatments were repeated at a frequency of no more than three times a week.

The test system of data set [7] is RNA synthesis in Ehrlich ascites tumor cells. Kind of data set: Inhibition of RNA synthesis on irradiation at 365 nm. Type of data set: cell-based. The following applies: relative (ang = 100). The text has this:
(§1) Photobiological activity: A significant test for assessing photobiological activity of alkylangelicins is the study of their capacity to inhibit DNA and RNA synthesis in Ehrlich ascites tumor cells. In Table III the capacity of inhibition is expressed as ID50, that is the irradiation does, in terms of quanta at 365 nm, necessary to inhibit in these cells the 50% of the DNA and RNA synthesis in the presence of a constant amount of alkylangelicin. […] Moreover, in general it can be observed that in this simple biological system a close correlation exists between photobiological activity and the capacity to induce photochemical lesions in DNA, that is photoreactivity.

In data set [8] the test system is DNA. The data set is described as follows: Photobinding to DNA, rate constants of the photoreactions. Type of data set: biochemical. Particulars: for Rate constants of the photoreactions with DNA: in vitro, UV-A irradiated; for Rate constants of the photoreactions with DNA, relative: relative (ang = 100). An excerpt:
(b) Determined according to F. Dall'Acqua, S. Marciani, F. Zambon and G.
Rodighiero, Photochem. Photobiol., 29,489(1979).
Photobinding capacity to DNA: The introduction of one or two methyl groups in the molecule of angelicin leads to a strong increase of the photobinding to DNA; see Table II. […] Photobiol., 29, 489 (1979).

Data set [9] has as its system DNA synthesis in Ehrlich ascites tumor cells. The data set is described as follows: Inhibition of DNA synthesis (and DNA and RNA synthesis) on irradiation at 365 nm. Type of data set: cell-based. Particulars: for inhibition of DNA synthesis, relative: relative (ang = 100).
Description: as §1

Turning to “4'-aminomethoxymethyl-4,5'-dimethylangelicin”, the “increase of K (affinity towards DNA)” value in [1] (on introduction of a cationic moiety in addition to the two methyl groups) was “more than 20 times”.

Take `CC(=O)OCc1c(C)oc2ccc3c(C)cc(=O)oc3c12` [4'-acetoxymethyl-4,5'-dimethylangelicin, 4,5'-dimethyl-4'-acetoxymethylangelicin]: the “Percent inhibition ± standard error of epidermal DNA synthesis” value (from here on “Percent inhibition ± standard error”) in data set [2] came out at 64.8 ± 13.9%. For the same compound, in data set [3], the inhibition in vivo at 0.01 % amounted to 10.6 ± 4.5%.

As to `Cc1oc2ccc3c(C)cc(=O)oc3c2c1CO` [4'-hydroxymethyl-4,5'-dimethylangelicin, 4,5'-dimethyl-4'-hydroxy-methylangelicin], in data set [4], the “capacity to form interstrand cross-linkages” value amounted to 0. Further, in [2], the “Percent inhibition ± standard error” value was determined as 54.2 ± 6.8%. Also, in data set [5], the Relative skin phototoxicity was found to be 0. Also, in data set [6], the “No. of patients with Excellent result” value was found to be 0 patients, the “No. of patients with Fair result” value is recorded as 2 patients, the “No. of patients with Good result” value was determined as 1 patients and the “No. of patients with Poor result” value was 1 patients. Also, in data set [1], the “K (association constants) of the complexes with DNA” value was 1250; the “1/n (frequency of binding sites)” value was 0.087; the “1/n (frequency of binding sites), relative” value is given as 138; the “K (association constants), relative” value came out at 223. Also, in data set [7], the “inhibition of RNA synthesis, relative” value amounted to 169. For the same compound, in data set [8], the “Rate constants of the photoreactions with DNA” value worked out at 3.2 K × 10^-2 × min^-1. In addition, the “inhibition of DNA synthesis, relative” value in data set [9] was found to be 272.

On to `COCc1c(C)oc2ccc3c(C)cc(=O)oc3c12` [4'-methoxymethyl-4,5'-dimethylangelicin, 4,5'-dimethyl-4'-methoxymethylangelicin], for which, in [4], the “capacity to form interstrand cross-linkages” value is given as 0. Besides, the Relative skin phototoxicity in data set [5] stood at 0. Moreover, in data set [1], the “K (association constants) of the complexes with DNA” value worked out at 700; the “1/n (frequency of binding sites)” value was determined as 0.050; the “1/n (frequency of binding sites), relative” value is listed as 80; the “K (association constants), relative” value is given as 125. Also, the “inhibition of RNA synthesis, relative” value in [7] stood at 169. Besides, in [8], the “Rate constants of the photoreactions with DNA” value is recorded as 1.6 K × 10^-2 × min^-1 and the “Rate constants of the photoreactions with DNA, relative” value (from here on “Rate constants … relative”) came out at 145. In addition, the “inhibition of DNA synthesis, relative” value in [9] is given as 110.

For `Cc1cc2c(cc(C)c3c(C)cc(=O)oc32)o1` [4,5,5'-trimethylangelicin], in [8] (versus angelicin), the “photobinding capacity to DNA (in words)” value is “close to that of angelicin”. The “capacity to inhibit the DNA and RNA synthesis (in words)” value in data set [9] (Ehrlich ascites tumor cells, versus angelicin) is recorded as “lower than that of angelicin”.

With `Cc1cc(=O)oc2c1c(C)cc1occc12` [4,5-dimethylangelicin], the “Percent inhibition ± standard error” value in data set [2] is given as 55.0 ± 6.0%. In [6], the “No. of patients with Excellent result” value came out at 0 patients, the “No. of patients with Fair result” value was 0 patients, the “No. of patients with Good result” value stood at 0 patients and the “No. of patients with Poor result” value is 2 patients. Further, the “efficacy in psoriasis patients (in words)” value in [6] (topical + UV-A) is on record as “equal to angelicin”. Moreover, in [3], the inhibition in vivo at 0.01 % is 36 ± 1.1%.

For the compound `Cc1cc(=O)oc2c1ccc1occc12` [4-methylangelicin], in data set [4], the “capacity to form interstrand cross-linkages” value is given as 0. Also, in data set [5], the Relative skin phototoxicity was 0. In addition, in data set [1], the “K (association constants) of the complexes with DNA” value amounted to 1400; the “1/n (frequency of binding sites)” value was 0.076; the “1/n (frequency of binding sites), relative” value was 120; the “K (association constants), relative” value was 250. Also, the “inhibition of RNA synthesis, relative” value in [7] was 129. Moreover, the inhibition in vivo at 0.01 % in data set [3] came out at 68.5 ± 19.5%. In addition, in [8], the “Rate constants of the photoreactions with DNA” value was found to be 1.61 K × 10^-2 × min^-1 and the “Rate constants … relative” value stood at 146. Besides, the “inhibition of DNA synthesis, relative” value in data set [9] is on record as 104.

Consider `Cc1cc2c(ccc3ccc(=O)oc32)o1` [5'-methylangelicin, 5'methylangelicin], for which the “capacity to form interstrand cross-linkages” value in [4] came to 0. The same compound showed a Relative skin phototoxicity in [5] of 0. Further, in data set [1], the “K (association constants) of the complexes with DNA” value stood at 1200; the “1/n (frequency of binding sites)” value is 0.073; the “1/n (frequency of binding sites), relative” value is recorded as 116; the “K (association constants), relative” value is 214. In addition, in [7], the “inhibition of RNA synthesis, relative” value is recorded as 134. Further, in data set [8], the “Rate constants of the photoreactions with DNA” value is 2.11 K × 10^-2 × min^-1 and the “Rate constants … relative” value is listed as 191. The “inhibition of DNA synthesis, relative” value in [9] turned out to be 150.

For the compound `Cc1cc2c(cc(C)c3ccc(=O)oc32)o1` [5,5'-dimethylangelicin], in data set [4], the “capacity to form interstrand cross-linkages” value came to 0. In addition, the Relative skin phototoxicity in data set [5] is on record as 0. Besides, in data set [1], the “K (association constants) of the complexes with DNA” value is 1750; the “1/n (frequency of binding sites)” value is on record as 0.085; the “1/n (frequency of binding sites), relative” value turned out to be 135; the “K (association constants), relative” value is 312. In [7], the “inhibition of RNA synthesis, relative” value was 355. For the same compound, the inhibition in vivo at 0.01 % in data set [3] stood at 48.3 ± 2.9%. For the same compound, in data set [8], the “Rate constants of the photoreactions with DNA” value came out at 2.73 K × 10^-2 × min^-1 and the “Rate constants … relative” value stood at 248. For the same compound, the “inhibition of DNA synthesis, relative” value in data set [9] was 180.
